Results from patent US6706686B2, “Inhibition of histone deacetylase as a treatment for cardiac hypertrophy” (The Regents of the University of Colorado, priority 2001, dated 2004).
Entries after “also recorded” stand apart in the source; their conditions may differ.

Tests used:
mouse model = details: Takahashi et al, 1996; cited from earlier work
[1] = system: SERCA, α-/β-MyHC, ANP, BNP, cardiac α-actin mRNA in cardiac myocytes; test: Myocyte-specific mRNA expression by RNase protection assay; type: cell-based, rat
Method: FIGS. 1A-C. TSA alters agonist-induced gene repression. Cultured cardiac myocytes were treated with PE (20 μmol/L) or IL-1 (1 ng/mL) for 48 hrs. TSA (30 nmol/L) was added 30 min. prior to treatment with PE or IL-1. Myocyte-specific mRNA expression (SERCA2a (FIG. 1A), αMyHC (FIG. 1B), βMyHC (FIG. 1C) was assayed in 5 μg total RNA by RNase protection assay. Mean data are from 4 cultures, and are presented as % of control after normalization to GAPDH signal.
(§1) Cell culture. Ventricular myocytes from one-day-old rats were plated at low density in MEM with 5% calf serum, and studied in serum-free MEM. Cultures were treated with PE (#P6126, Sigma-Aldrich Corp., St. Louis, Mo.), IL-1 (#501-RL, R&D Systems, Minneapolis, Minn.), TSA (#GR-309, BIOMOL Research Laboratories, Inc., Plymouth Meeting, Pa.) or their vehicles (ascorbic acid for PE; bovine serum albumin for IL-1; dimethyl sulfoxide for TSA).
Quantification of myocyte hypertrophy and myocyte-specific mRNA expression. Growth of cultured myocytes was quantified by content of radiolabeled protein after continuous incubation with ^14C-phenylalanine. For evaluation of the myocyte gene program, total RNA was extracted from cells with TRIZol (GIBCO, Carlsbad, Calif.) and used in RNase protection assay with probes for SERCA, α-/β-MyHC, ANP, BNP, and cardiac α-actin. All samples also included glyceraldehyde phosphate dehydrogenase (GAPDH) as an internal control for RNA loading.

cardiomyocytes [2] = test: Immunostaining for ANF protein and α-actinin (sarcomere); type: cell-based, rat
Method: Immunostaining. Glass coverslips were coated with laminin (Invitrogen, Carlsbad, Calif.) by solublizing laminin in 1× PBS (40 μg/ml), by dipping the coverslips in the solution and by allowing them to air-dry. Cells were treated for 24 hrs, washed, fixed 10 min. with 3.7% formaldehyde, washed with 1× PBS and permeabolized with 1× PBS containing 3% BSA and 0.1% NP-40 (Sigma, St. Louis, Mo.). Primary Antibodies were in 1× PBS containing 3% BSA and 0.1% NP-40 for 30 min, then washed three times in 1× PBS. The secondary FITC or TRITC antibodies (Vector Laboratories, Inc., Burlingame, Calif.) were incubated (1:200) in same buffer solution as the primary antibodies, then washed in 1× PBS, covered and subsequently visualized. Images were captured using a digital camera (Hamamatsu Photonics, Hamamatsu City, Japan).

[3] = system: acetylated lysine residues / Histone H3 in cardiac myocytes; test: Detection of acetylated lysine residues (Western blot, immunofluorescence); type: cell-based, rat; details: exposure for 24 hours
Method: as §1
Detection of acetylated lysine residues. Total cell extract was subjected to Western blot analysis using antibodies from Cell Signaling Technology (Beverly, Mass.) (acetylated lysine antibody: #9441, acetylated histone H3 antibody at Lysine 9: #9671, acetylated histone H3 antibody at Lysine 23: #9674, histone H3 antibody: #9712). Nuclear localization of acetylated histone H3 was examined by immunostaining using the same antibodies.

ANF locus / NRSE = details: prior data; cited from earlier work
cardiomyocytes [4] = test: Protein synthesis (tritiated leucine, S6 ribosomal protein); type: cell-based, rat
Method: FIG. 6. The effects of TSA treatment on the reorganization of the sarcomeres and protein synthesis. […] The graphs on the right show the content of S6 ribosome protein in cardiomyocytes after 24 hours co-treatment with PE and increasing concentrations of TSA or with serum and increasing concentrations of TSA.
Protein synthesis. Cardiomyocytes were incubated with (1.0 μCi/ml; 172 Ci/mmol sp. activity) tritiated-leucine (ICN Biochemicals, Inc., Irvine, Calif.) in treated RPMI media (Invitrogen, Carlsbad, Calif.). After 6 hrs incubation, the cells were washed twice with 1× PBS, then incubated in 10% TCA on ice for 30 min. Afterwards, the cells were washed twice with 5% TCA, once with water, and then lysed in […]. Lysates were measured in one-sixth volume of scintillation fluid by a scintillation counter (Beckman, Fullerton, Calif.).
S6 Ribosomal protocol. After blocking, cells were incubated in 1% BSA/1× PBS containing 50 μg/ml anti-S6 protein (Cell Signaling, […]) for 1 hr. After washing, the cells were incubated with IgG-HRP (Jackson Labs, […]) at a 1:400 dilution. The cells were then washed twice in 1% BSA/1× PBS, in 1× PBS, then blotted dry. Luminol (Pierce, Rockford, Ill.) was added and the chemiluminescence was detected in a Fusion reader (Perkin-Elmer/Packard).

CC(/C=C/C(=O)NO)=C\[C@@H](C)C(=O)c1ccc(N(C)C)cc1 [TSA, Trichostatin A]
immunosuppression (mouse model): induces immunsuppression
αMyHC (so in the source) expression in presence of IL-1 alone ([1]; IL-1 alone): increased αMyHC expression
IL-1 suppression of PE induction of αMyHC (so in the source) ([1]; PE/IL-1 co-treated cells): reversed the IL-1 effect
basal SERCA2a mRNA expression ([1]; TSA 30 nmol/L, 48 hrs): increased the basal expression
basal αMyHC mRNA expression ([1]; TSA 30 nmol/L, 48 hrs): increased the basal expression
reversal of αMyHC repression in IL-1 treated (or co-treated) cells ([1]; TSA pre-treatment, IL-1): less prominent
PE effect on αMyHC expression ([1]; TSA pre-treatment, PE): nearly complete reversal of the PE effect
repression of SERCA expression by hypertrophic stimuli ([1]; TSA pre-treatment, PE 20 μmol/L or IL-1 1 ng/mL): substantial reversal in the repression of SERCA expression
gene expression of cardiac α-actin, ANP, or BNP ([1]; any hypertrophic treatment condition): did not affect gene expression
basal expression or PE-induction of αMyHC (so in the source) ([1]; basal or PE): had no effects on either the basal expression or PE-induction
ANF protein accumulation, inhibitor alone (cardiomyocytes [2]; 24 hrs): lacked accumulation of ANF protein
cell size (cardiomyocytes [2]; TSA alone): did not change size
organization of the sarcomere (α-actinin), inhibitor alone (cardiomyocytes [2]; TSA alone): lacked organization of the sarcomere
organization of the sarcomere with growth stimulants (cardiomyocytes [2]; phenylephrine, serum or ET-1): lacked fully organized sarcomeres
ANF protein accumulation induced by phenylephrine or serum (cardiomyocytes [2]; with phenylephrine or serum): dramatically reduced ANF protein accumulation
protein acetylation (acetylated lysine residues, Histone H3) [3]: effectively increased acetylated lysine residues
ANF expression at low dose (ANF locus / NRSE): can induce the ANF expression
phenylephrine-stimulated protein synthesis, 6 hours (cardiomyocytes [4]; 6 hours co-culture with phenylephrine): had little effect on the stimulation of protein synthesis; also recorded: does not alter this increase
protein synthesis induced by PE or serum, 24 hrs (cardiomyocytes [4]; 24 hrs co-treatment): antagonized the protein synthesis normally induced by PE or serum in a dose-dependent manner
